Drawing on ChEMBL document CHEMBL1135269, “Benzoindoloquinolines interact with DNA tetraplexes and inhibit telomerase” (Bioorg Med Chem Lett, 2002), this text covers IC50 for four compounds.

SMILES strings stand for the structures.

Assay [1] concerns the target Telomerase reverse transcriptase (Homo sapiens, UniProt O14746). In words: Tested for inhibitory activity against Telomerase in telomerase repeat amplification protocol (TRAP) assay.
Assay [2] addresses DNA polymerase I, thermostable (Thermus aquaticus, UniProt P19821). In words: Tested for inhibitory activity against Taq DNA polymerase.

Telomerase reverse transcriptase, sequence (O14746 whole entry): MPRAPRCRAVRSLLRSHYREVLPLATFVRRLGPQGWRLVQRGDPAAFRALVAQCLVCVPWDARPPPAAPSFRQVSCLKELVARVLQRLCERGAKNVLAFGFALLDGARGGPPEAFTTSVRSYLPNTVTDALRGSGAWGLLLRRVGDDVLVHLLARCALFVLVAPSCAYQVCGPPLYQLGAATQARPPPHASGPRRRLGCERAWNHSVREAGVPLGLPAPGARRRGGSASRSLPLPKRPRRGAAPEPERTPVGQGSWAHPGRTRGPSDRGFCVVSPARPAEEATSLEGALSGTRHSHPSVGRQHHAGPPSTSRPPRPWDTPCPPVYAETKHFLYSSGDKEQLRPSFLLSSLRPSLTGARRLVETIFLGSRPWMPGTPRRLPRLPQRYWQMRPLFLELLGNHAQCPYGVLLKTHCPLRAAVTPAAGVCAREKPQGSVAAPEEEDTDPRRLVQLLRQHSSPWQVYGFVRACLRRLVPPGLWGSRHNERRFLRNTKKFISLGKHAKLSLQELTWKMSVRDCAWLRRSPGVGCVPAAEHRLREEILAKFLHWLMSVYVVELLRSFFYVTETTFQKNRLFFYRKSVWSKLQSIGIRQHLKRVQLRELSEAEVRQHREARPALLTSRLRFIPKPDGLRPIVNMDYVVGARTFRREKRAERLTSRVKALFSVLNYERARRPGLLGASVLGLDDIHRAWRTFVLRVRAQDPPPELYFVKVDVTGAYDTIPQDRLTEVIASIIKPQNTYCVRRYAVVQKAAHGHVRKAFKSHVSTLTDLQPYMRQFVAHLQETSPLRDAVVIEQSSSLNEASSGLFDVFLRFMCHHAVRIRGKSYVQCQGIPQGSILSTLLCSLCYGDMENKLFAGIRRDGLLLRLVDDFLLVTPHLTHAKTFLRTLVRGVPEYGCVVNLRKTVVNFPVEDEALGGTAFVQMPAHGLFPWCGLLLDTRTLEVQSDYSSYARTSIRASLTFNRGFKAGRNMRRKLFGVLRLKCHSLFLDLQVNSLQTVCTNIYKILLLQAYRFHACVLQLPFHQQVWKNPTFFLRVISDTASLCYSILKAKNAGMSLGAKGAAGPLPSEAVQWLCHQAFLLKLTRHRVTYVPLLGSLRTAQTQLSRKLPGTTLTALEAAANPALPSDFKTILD
DNA polymerase I, thermostable, sequence (P19821 whole entry): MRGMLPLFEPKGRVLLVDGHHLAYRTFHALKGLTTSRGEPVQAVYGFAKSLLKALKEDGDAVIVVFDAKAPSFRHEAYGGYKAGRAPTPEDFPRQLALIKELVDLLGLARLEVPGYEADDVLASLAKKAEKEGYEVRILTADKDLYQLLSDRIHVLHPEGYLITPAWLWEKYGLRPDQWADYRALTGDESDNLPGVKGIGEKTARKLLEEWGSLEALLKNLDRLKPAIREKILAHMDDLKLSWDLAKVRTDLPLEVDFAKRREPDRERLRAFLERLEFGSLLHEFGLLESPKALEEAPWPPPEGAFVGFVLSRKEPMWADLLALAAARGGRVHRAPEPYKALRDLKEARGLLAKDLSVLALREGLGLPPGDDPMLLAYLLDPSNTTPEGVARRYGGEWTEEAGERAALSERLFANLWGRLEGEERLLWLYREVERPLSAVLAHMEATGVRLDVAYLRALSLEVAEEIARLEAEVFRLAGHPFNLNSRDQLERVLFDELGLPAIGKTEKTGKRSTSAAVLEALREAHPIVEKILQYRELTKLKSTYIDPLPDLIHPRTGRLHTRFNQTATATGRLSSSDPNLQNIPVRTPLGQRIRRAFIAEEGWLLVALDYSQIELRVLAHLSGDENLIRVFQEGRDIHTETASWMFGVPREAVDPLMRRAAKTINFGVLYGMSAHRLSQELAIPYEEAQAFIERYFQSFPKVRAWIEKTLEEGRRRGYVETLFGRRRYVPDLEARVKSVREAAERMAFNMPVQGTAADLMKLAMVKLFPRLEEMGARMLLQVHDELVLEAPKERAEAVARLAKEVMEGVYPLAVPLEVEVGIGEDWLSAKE

In the case of `COc1ccc2ccc3c([nH]c4c5ccccc5nc(NCCN(C)C)c34)c2c1`, the IC50 (commonly the point on the concentration scale where inhibition reaches its midpoint) in assay [1] was 9800 nM; in assay [2], more than 10000 nM.

As for `CN(C)CCCNc1nc2ccccc2c2[nH]c3c4cc([N+](=O)[O-])ccc4ccc3c12`, the IC50 in assay [1] is 500 nM; in assay [2], 5000 nM.

On to `COc1ccc2c(ccc3c2[nH]c2c4ccccc4nc(NCCCN(C)C)c32)c1`, for which the IC50 stood at 1000 nM in assay [1] and 900 nM in assay [2].

Take `COc1ccc2ccc3c([nH]c4c5ccccc5nc(NCCCN(C)C)c34)c2c1`: the IC50 in assay [1] was 1100 nM; in assay [2], 2200 nM.
